Test results taken from the supplement of paper PMC13380429.

Assays:
Settings in all cases: 72 h
Calu-3 [1] = experiment: relative viability EC50 (midpoint between 100% and the lowest measured viability); higher = less toxic
Caco-2 [2] = experiment: as above
U2OS [3] = experiment: as above
HepG2 [4] = experiment: as above
Vero E6 [5] = experiment: as above
Calu-3 [6] = experiment: drug sensitivity score (DSS) for viability; higher = more toxic; extreme values may be limits of the assay
Caco-2 [7] = experiment: as above
U2OS [8] = experiment: as above
HepG2 [9] = experiment: as above
Vero E6 [10] = experiment: as above
Calu-3 [11] = experiment: cell viability relative to DMSO; higher = less toxic
Caco-2 [12] = experiment: as above
U2OS [13] = experiment: as above
HepG2 [14] = experiment: as above
Vero E6 [15] = experiment: as above

Structure (SMILES)	relative viability EC50 (Calu-3 [1]) [µM]	relative viability EC50 (Caco-2 [2]) [µM]	relative viability EC50 (U2OS [3]) [µM]	relative viability EC50 (HepG2 [4]) [µM]	relative viability EC50 (Vero E6 [5]) [µM]	drug sensitivity score (Calu-3 [6])	drug sensitivity score (Caco-2 [7])	drug sensitivity score (U2OS [8])	drug sensitivity score (HepG2 [9])	drug sensitivity score (Vero E6 [10])	cell viability (Calu-3 [11]; 1 nM) [%]	cell viability (Calu-3 [11]; 10 nM) [%]	cell viability (Calu-3 [11]; 100 nM) [%]	cell viability (Calu-3 [11]; 1000 nM) [%]	cell viability (Calu-3 [11]; 10000 nM) [%]	cell viability (Caco-2 [12]; 1 nM) [%]	cell viability (Caco-2 [12]; 10 nM) [%]	cell viability (Caco-2 [12]; 100 nM) [%]	cell viability (Caco-2 [12]; 1000 nM) [%]	cell viability (Caco-2 [12]; 10000 nM) [%]	cell viability (U2OS [13]; 1 nM) [%]	cell viability (U2OS [13]; 10 nM) [%]	cell viability (U2OS [13]; 100 nM) [%]	cell viability (U2OS [13]; 1000 nM) [%]	cell viability (U2OS [13]; 10000 nM) [%]	cell viability (HepG2 [14]; 1 nM) [%]	cell viability (HepG2 [14]; 10 nM) [%]	cell viability (HepG2 [14]; 100 nM) [%]	cell viability (HepG2 [14]; 1000 nM) [%]	cell viability (HepG2 [14]; 10000 nM) [%]	cell viability (Vero E6 [15]; 1 nM) [%]	cell viability (Vero E6 [15]; 10 nM) [%]	cell viability (Vero E6 [15]; 100 nM) [%]	cell viability (Vero E6 [15]; 1000 nM) [%]	cell viability (Vero E6 [15]; 10000 nM) [%]
c1ccc2c(c1)[I+]c1ccccc1-2 [diphenyleneiodonium]	0.308	0.251	0.16	0.0322	0.137	8.6	10.8	16	29.3	15.8	92.6	94.5	78.8	69.1	44.9	92.9	97.3	72.3	61.9	37	95.4	95.1	64.8	39.3	20.7	110	87.7	14.9	8.2	2.4	94.9	95	65.9	38.9	25.1
CCOC(=O)[C@H](CCc1ccccc1)N[C@@H](C)C(=O)N1CCC[C@H]1C(=O)O [enalapril]	> 10	> 10	> 10	> 10	> 10	0	0	0	0	0	90.5	98.3	92.2	101	91.9	92.4	97.1	84.1	102	100	97.9	101	99.5	98.6	102	103	95.4	98.4	109	109	97.2	99.3	98.2	100	107
C[C@]12CC[C@@H]3c4ccc(OC(=O)N(CCCl)CCCl)cc4CC[C@H]3[C@@H]1CC[C@@H]2OP(=O)(O)O [estramustine-phosphate]	> 10	> 10	> 10	> 10	> 10	0	0	0	0	0	99	105	90.2	99.9	116	115	89.9	92.2	94.3	94.9	102	100	98.7	97.3	99.1	98.3	90.8	101	95.4	104	95.1	103	94.9	107	92.8
CCOc1ccccc1C(N)=O [ethenzamide]	> 10	> 10	> 10	> 10	> 10	0	0	0	0	0	95.3	101	99.5	98.1	103	100	97	97.6	98.9	103	106	97.9	100	98.2	100	101	94.9	95.4	102	91.2	104	98.1	101	92.6	97.3
CCNC1=Nc2ccc(Cl)cc2C(C)(c2ccccc2)O1 (stereo not given) [etifoxine]	> 10	> 10	> 10	> 10	> 10	0	0	0	0	0	94.4	97.2	102	102	90.7	90.1	102	96.1	92.2	97.3	92.1	96.9	99.8	98.3	98	95.7	100	101	107	95.3	94.8	98.1	95.5	99.3	112
OC[C@H]1NCC[C@@H](O)[C@@H]1O [fagomine]	> 10	> 10	> 10	> 10	> 10	0	0.3	0	0	0	111	103	97	104	99.8	89	91.9	93.8	87.2	87.9	97.9	100	93.8	97.1	94.8	98.9	97.4	93.3	90.2	94.6	95.6	93.5	93.1	94.5	92.7
NC(N)=Nc1nc(CSCC/C(N)=N/S(N)(=O)=O)cs1 [famotidine]	> 10	> 10	> 10	> 10	> 10	0	0	0	0	0	107	91.5	113	105	97.7	107	106	108	97.2	109	94.3	95.4	99.6	95	99.4	106	102	90.4	97.5	93.4	113	106	89.2	101	94.3
NC(=O)OCC(COC(N)=O)c1ccccc1 [felbamate]	> 10	> 10	> 10	> 10	> 10	0	0	0	0	0	91	95.8	91.5	123	98.1	92.9	97.2	95.9	99.1	97.1	97.8	102	97.6	107	104	96.5	94.7	102	106	98.5	87.8	89.8	99.6	90.3	104
O=C(CCCl)NCCc1ccccc1 [fenaclon]	> 10	> 10	> 10	> 10	> 10	0	0	0	0	0	105	99.1	97.4	96	88.3	81.8	126	93.7	84.5	109	101	96.9	100	92.6	103	104	111	99.3	119	96.2	104	105	100	103	91.3
O=C(COc1ccc(Cl)cc1)N1CCN(Cc2ccc3c(c2)OCO3)CC1 [fipexide]	> 10	> 10	> 10	> 10	> 10	0	0	0	0	0	101	93.1	103	93.5	110	98.8	90.1	93.5	93.4	88.4	102	100	101	95.2	96.2	83.9	90.8	86.6	93.8	102	97.6	99.9	101	101	97.6
CCC1=C(C)CN(C(=O)NCCc2ccc(S(=O)(=O)NC(=O)N[C@H]3CC[C@H](C)CC3)cc2)C1=O [glimepiride]	> 10	> 10	> 10	> 10	> 10	0	1.8	0	0	0	98.6	104	91.7	104	98.6	87.2	94.3	98.9	91.4	76.2	98.9	99.2	97.7	99.8	92.1	83.1	90.7	104	98.7	104	111	110	105	91.9	95.3
CC#CCC(C)[C@H](O)/C=C/[C@@H]1[C@H]2C/C(=C/CCCC(=O)O)C[C@H]2C[C@H]1O (stereo not given in full) [iloprost]	> 10	> 10	> 10	> 10	> 10	0	0	0	0	0	99.3	96.8	85	91.5	103	92.2	105	100	95.2	105	96	101	93.3	98.4	94	97.8	90.6	106	97.1	98.2	96.2	101	97	98.8	99.3
C[C@H]1N=C(N(C)C)N=C(N)N1 [imeglimin]	> 10	> 10	> 10	> 10	> 10	0	0	0	0	0	97	114	96.9	104	104	86.3	88	96.2	97.3	97.6	99.7	105	96.9	102	103	96.4	96.7	97.7	99	100	92.5	96.2	92.8	101	105
COc1cc2c(cc1OC)CC(=O)N(CCCN(C)C[C@H]1Cc3cc(OC)c(OC)cc31)CC2 [ivabradine]	> 10	> 10	> 10	> 10	> 10	0	0	0	0	0	111	85.1	98.4	101	105	98.3	85.6	102	100	99.8	106	102	99.6	99.1	101	109	113	98.2	102	89.3	101	99.7	100	107	99.4
